Where only a bound is given, the exact number is not on record here.

The results in this text go back to patent publication US8471005B2 (Cephalon, Inc., priority 2008, dated 2013).

One test has as its target T1, JAK2 (Homo sapiens, UniProt O60674).
T1 construct: host or cells: baculovirus expression system
Put plainly: Recombinant Human JAK2 Kinase Assay (TRF). The test is classed as biochemical. Conditions: JAK2 kinase inhibition, 0.2 μM ATP; read-out: JAK2 Potency. In outline: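 Kinase activity of baculovirus-expressed JAK2 is followed on a surface-immobilised biotinylated peptide, with the reaction run for 20 min at room temperature in buffer containing 0.2 μM ATP and manganese. Phosphorylation is read with Eu-N1 PY100 antibody.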

The next test concerns the target T2, ALK (Homo sapiens, UniProt Q9UM73).
T2 construct: host or cells: baculovirus expression system
Kind of test: ALK Kinase Assay (ELISA/TRF, PLC-γ substrate). The test is classed as biochemical. The following applies: ALK kinase inhibition, 1 μM ATP; read-out: ALK Potency. In short, it runs like this: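 IC50 values derive from percent inhibition plotted against log10 compound concentration and fitted to a variable-slope sigmoidal equation. The underlying reaction used 30 ng/ml ALK acting on immobilized PLC-γ (10 μg/mL in TBS) at 37° C for 15 minutes, read with Eu-N1 PT66 antibody.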
(In general: In an ELISA, binding on a coated surface is turned into a signal by an enzyme label.)

T1 sequence (O60674 whole entry): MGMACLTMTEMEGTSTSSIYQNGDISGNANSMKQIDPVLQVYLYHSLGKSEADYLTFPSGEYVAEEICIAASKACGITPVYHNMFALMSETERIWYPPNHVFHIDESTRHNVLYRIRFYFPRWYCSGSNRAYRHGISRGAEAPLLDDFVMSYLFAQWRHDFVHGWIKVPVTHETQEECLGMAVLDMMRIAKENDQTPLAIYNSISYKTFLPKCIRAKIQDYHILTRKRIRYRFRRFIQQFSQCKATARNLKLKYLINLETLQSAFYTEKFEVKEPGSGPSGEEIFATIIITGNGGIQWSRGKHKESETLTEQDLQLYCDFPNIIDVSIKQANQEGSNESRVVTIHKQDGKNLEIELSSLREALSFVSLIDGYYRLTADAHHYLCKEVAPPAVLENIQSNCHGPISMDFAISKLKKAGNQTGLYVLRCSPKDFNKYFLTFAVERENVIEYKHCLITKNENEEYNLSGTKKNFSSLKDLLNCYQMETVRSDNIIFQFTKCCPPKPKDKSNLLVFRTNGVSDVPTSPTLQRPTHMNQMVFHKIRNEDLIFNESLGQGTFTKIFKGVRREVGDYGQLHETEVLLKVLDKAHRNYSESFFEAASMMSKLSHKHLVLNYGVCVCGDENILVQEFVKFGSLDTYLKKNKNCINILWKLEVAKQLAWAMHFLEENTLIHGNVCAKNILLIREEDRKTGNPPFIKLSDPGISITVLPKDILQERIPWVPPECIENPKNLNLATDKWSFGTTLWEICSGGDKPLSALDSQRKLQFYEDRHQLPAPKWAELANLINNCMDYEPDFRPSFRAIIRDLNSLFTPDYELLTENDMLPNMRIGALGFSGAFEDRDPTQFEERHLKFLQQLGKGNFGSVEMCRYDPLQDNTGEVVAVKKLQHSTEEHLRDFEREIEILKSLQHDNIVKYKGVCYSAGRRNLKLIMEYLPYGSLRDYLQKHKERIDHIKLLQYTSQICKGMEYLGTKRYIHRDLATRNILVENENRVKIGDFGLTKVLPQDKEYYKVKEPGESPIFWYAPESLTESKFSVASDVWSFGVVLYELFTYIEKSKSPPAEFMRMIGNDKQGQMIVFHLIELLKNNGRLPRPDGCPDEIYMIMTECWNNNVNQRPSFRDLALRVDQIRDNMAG
T2 sequence (Q9UM73 19-1620): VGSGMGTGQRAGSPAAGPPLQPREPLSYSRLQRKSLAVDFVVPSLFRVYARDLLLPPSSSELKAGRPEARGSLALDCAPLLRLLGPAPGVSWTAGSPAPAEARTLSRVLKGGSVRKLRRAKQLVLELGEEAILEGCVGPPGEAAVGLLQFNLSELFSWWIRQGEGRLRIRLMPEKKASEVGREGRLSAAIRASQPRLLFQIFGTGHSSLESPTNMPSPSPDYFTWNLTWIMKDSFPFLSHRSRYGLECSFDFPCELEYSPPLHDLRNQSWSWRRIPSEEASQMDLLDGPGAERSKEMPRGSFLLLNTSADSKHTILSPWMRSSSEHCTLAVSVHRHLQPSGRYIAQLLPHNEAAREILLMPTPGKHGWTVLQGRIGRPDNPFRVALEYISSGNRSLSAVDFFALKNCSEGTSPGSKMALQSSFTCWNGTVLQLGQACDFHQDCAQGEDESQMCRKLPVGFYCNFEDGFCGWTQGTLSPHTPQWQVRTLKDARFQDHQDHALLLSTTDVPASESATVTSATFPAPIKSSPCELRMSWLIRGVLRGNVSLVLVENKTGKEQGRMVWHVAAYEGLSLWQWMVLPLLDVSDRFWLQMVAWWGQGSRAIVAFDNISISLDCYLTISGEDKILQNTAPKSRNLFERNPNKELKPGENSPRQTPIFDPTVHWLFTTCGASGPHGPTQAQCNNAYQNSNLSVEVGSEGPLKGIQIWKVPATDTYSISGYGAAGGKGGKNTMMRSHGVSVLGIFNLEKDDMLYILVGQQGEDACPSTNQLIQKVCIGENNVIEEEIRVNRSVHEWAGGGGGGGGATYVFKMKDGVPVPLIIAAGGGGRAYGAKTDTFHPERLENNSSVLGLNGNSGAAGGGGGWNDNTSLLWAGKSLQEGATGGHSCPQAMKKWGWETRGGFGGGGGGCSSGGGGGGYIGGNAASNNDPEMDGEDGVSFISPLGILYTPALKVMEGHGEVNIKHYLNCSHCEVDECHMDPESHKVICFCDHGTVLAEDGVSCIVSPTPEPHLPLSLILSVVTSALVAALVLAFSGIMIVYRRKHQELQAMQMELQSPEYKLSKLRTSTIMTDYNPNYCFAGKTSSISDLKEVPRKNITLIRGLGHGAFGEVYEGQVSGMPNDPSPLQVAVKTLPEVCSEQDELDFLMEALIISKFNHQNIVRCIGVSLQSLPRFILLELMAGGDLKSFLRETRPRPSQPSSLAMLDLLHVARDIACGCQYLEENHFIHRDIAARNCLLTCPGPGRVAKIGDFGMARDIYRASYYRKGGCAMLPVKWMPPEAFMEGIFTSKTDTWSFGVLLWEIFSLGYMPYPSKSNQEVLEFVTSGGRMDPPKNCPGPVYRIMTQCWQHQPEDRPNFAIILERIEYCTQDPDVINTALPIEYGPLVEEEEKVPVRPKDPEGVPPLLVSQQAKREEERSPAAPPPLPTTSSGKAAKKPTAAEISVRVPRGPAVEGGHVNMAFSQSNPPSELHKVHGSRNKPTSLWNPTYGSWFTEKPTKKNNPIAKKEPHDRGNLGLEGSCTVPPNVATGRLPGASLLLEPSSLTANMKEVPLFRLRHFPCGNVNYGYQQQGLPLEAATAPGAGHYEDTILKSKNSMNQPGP

Consider `COc1ccc(CN2CCOCC2)cc1Nc1ncc2ccc(-c3ccccc3OC)n2n1` [Example 499, (2-Methoxy-5-morpholin-4-ylmethyl-phenyl)-[7-(2-methoxy-phenyl)-pyrrolo[2,1-f][1,2,4]triazin-2-yl]-amine], for which the IC50 at JAK2 was in the range of 100 to 1000 nM; on ALK, 1000 to 10000 nM.

For the compound `COc1ccccc1-c1ccc2cnc(Nc3ccc(C4CCN(C(=O)C5CCN(C)CC5)CC4)cc3)nn12` [Example 500, (4-{4-[7-(2-Methoxy-phenyl)-pyrrolo[2,1-f][1,2,4]triazin-2-ylamino]-phenyl}-piperidin-1-yl)-(1-methyl-piperidin-4-yl)-methanone], the IC50 at JAK2 and at ALK was below 100 nM each time.

As to `COc1ccccc1-c1ccc2cnc(Nc3ccc(C4CCN(C(=O)N5CCN(C)CC5)CC4)cc3)nn12` [Example 501, (4-{4-[7-(2-Methoxy-phenyl)-pyrrolo[2,1-f][1,2,4]triazin-2-ylamino]-phenyl}-piperidin-1-yl)-(4-methyl-piperazin-1-yl)-methanone], the IC50 on JAK2 and at ALK was below 100 nM throughout.

Consider `CN1CCC(C(=O)N2CCC(c3ccc(Nc4ncc5ccc(-c6ccccc6N(C)S(C)(=O)=O)n5n4)cc3)CC2)CC1` [Example 502, N-Methyl-N-[2-(2-{4-[1-(1-methyl-piperidine-4-carbonyl)-piperidin-4-yl]-phenylamino}-pyrrolo[2,1-f][1,2,4]triazin-7-yl)-phenyl]-methanesulfonamide], for which the IC50 on JAK2 and at ALK was below 100 nM throughout.

Turning to `CN1CCN(C(=O)N2CCC(c3ccc(Nc4ncc5ccc(-c6ccccc6N(C)S(C)(=O)=O)n5n4)cc3)CC2)CC1` [Example 503, N-Methyl-N-[2-(2-{4-[1-(4-methyl-piperazine-1-carbonyl)-piperidin-4-yl]-phenylamino}-pyrrolo[2,1-f][1,2,4]triazin-7-yl)-phenyl]-methanesulfonamide], the IC50 on JAK2 and on ALK was below 100 nM throughout.

Turning to `COc1cc(Cn2ccnc2C)ccc1Nc1ncc2ccc(-c3ccccc3N(C)S(C)(=O)=O)n2n1` [Example 505, N-(2-{2-[2-Methoxy-4-(2-methyl-imidazol-1-ylmethyl)-phenylamino]-pyrrolo[2,1-f][1,2,4]triazin-7-yl}-phenyl)-N-methyl-methanesulfonamide], the IC50 at JAK2 is 1000 to 10000 nM; on ALK it was below 100 nM.

Consider `COc1cc(Cn2ccnc2C)ccc1Nc1ncc2ccc(-c3ccccc3OC)n2n1` [Example 506, [2-Methoxy-4-(2-methyl-imidazol-1-ylmethyl)-phenyl]-[7-(2-methoxy-phenyl)-pyrrolo[2,1-f][1,2,4]triazin-2-yl]-amine], for which the IC50 was 100 to 1000 nM on JAK2 and below 100 nM on ALK.

In the case of `COc1ccccc1-c1ccc2cnc(Nc3ccc(N4CCN(C)CC4)cc3Cl)nn12` [Example 508, [2-Chloro-4-(4-methyl-piperazin-1-yl)-phenyl]-[7-(2-methoxy-phenyl)-pyrrolo[2,1-f][1,2,4]triazin-2-yl]-amine], the IC50 on JAK2 and at ALK was below 100 nM throughout.

Turning to `COc1cc(N2CCC(N3CCOCC3)CC2)ccc1Nc1ncc2ccc(-c3c(F)cccc3OC)n2n1` [Example 509, [7-(2-Fluoro-6-methoxy-phenyl)-pyrrolo[2,1-f][1,2,4]triazin-2-yl]-[2-methoxy-4-(4-morpholin-4-yl-piperidin-1-yl)-phenyl]-amine], the IC50 at JAK2 and at ALK was below 100 nM throughout.

For the compound `COc1cc(N2CCC(N3CCOCC3)CC2)ccc1Nc1ncc2ccc(-c3ccc(F)cc3OC)n2n1` [Example 510, [7-(4-Fluoro-2-methoxy-phenyl)-pyrrolo[2,1-f][1,2,4]triazin-2-yl]-[2-methoxy-4-(4-morpholin-4-yl-piperidin-1-yl)-phenyl]-amine], the IC50 on JAK2 and at ALK was below 100 nM each time.

On to `COc1cc(N2CCC(N3CCOCC3)CC2)ccc1Nc1ncc2ccc(-c3ccccc3C#N)n2n1` [Example 511, 2-{2-[2-Methoxy-4-(4-morpholin-4-yl-piperidin-1-yl)-phenylamino]-pyrrolo[2,1-f][1,2,4]triazin-7-yl}-benzonitrile], for which the IC50 at JAK2 and on ALK was below 100 nM throughout.

On to `COc1cc(N2CCC(N3CCOCC3)CC2)ccc1Nc1ncc2ccc(-c3cccc4cccnc34)n2n1` [Example 512, [2-Methoxy-4-(4-morpholin-4-yl-piperidin-1-yl)-phenyl]-(7-quinolin-8-yl-pyrrolo[2,1-f][1,2,4]triazin-2-yl)-amine], for which the IC50 at JAK2 was 1000 to 10000 nM; at ALK, 100 to 1000 nM.

`N#Cc1ccccc1-c1ccc2cnc(Nc3ccc(C4CCN(CC(N)=O)CC4)cc3)nn12` [Example 513, 2-(4-{4-[7-(2-Cyano-phenyl)-pyrrolo[2,1-f][1,2,4]triazin-2-ylamino]-phenyl}-piperidin-1-yl)-acetamide]: the IC50 on JAK2 and at ALK was below 100 nM throughout.

Take `NC(=O)CN1CCC(c2ccc(Nc3ncc4ccc(-c5cccc6cccnc56)n4n3)cc2)CC1` [Example 514, 2-{4-[4-(7-Quinolin-8-yl-pyrrolo[2,1-f][1,2,4]triazin-2-ylamino)-phenyl]-piperidin-1-yl}-acetamide]: the IC50 was below 100 nM at JAK2 and 1000 to 10000 nM on ALK.

Turning to `COc1cc(C2CCN(CC(N)=O)CC2)ccc1Nc1ncc2cc(C)c(-c3ccccc3N(C)S(C)(=O)=O)n2n1` [Example 515, 2-[4-(4-{7-[2-(Methanesulfonyl-methyl-amino)-phenyl]-6-methyl-pyrrolo[2,1-f][1,2,4]triazin-2-ylamino}-3-methoxy-phenyl)-piperidin-1-yl]-acetamide], the IC50 on JAK2 and on ALK was 1000 to 10000 nM in each case.

As for `Cc1cc2cnc(Nc3ccc(C4CCN(CC(N)=O)CC4)cc3)nn2c1-c1ccccc1N(C)S(C)(=O)=O` [Example 516, 2-[4-(4-{7-[2-(Methanesulfonyl-methyl-amino)-phenyl]-6-methyl-pyrrolo[2,1-f][1,2,4]triazin-2-ylamino}-phenyl)-piperidin-1-yl]-acetamide], the figures for the IC50 on JAK2 and on ALK were below 100 nM and 1000 to 10000 nM, respectively.

`COc1cc(C2CCN(CC(N)=O)CC2)ccc1Nc1ncc2ccc(-c3ccccc3C#N)n2n1` [Example 517, 2-(4-{4-[7-(2-Cyano-phenyl)-pyrrolo[2,1-f][1,2,4]triazin-2-ylamino]-3-methoxy-phenyl}-piperidin-1-yl)-acetamide]: the IC50 on JAK2 was 100 to 1000 nM; on ALK it was below 100 nM.

Regarding `COc1cc2c(cc1Nc1ncc3ccc(-c4cccc5c4OCC5)n3n1)CCN(C[C@@H](C)O)CC2` [Example 522, (R)-1-{7-[7-(2,3-Dihydro-benzofuran-7-yl)-pyrrolo[2,1-f]triazin-2-ylamino]-8-methoxy-1,2,4,5-tetrahydro-benzo[d]azepin-3-yl}-propan-2-ol], the IC50 was 100 to 1000 nM at JAK2 and below 100 nM at ALK.

For the compound `COc1cc2c(cc1Nc1ncc3ccc(-c4cccc(S(=O)(=O)NC5CC5)c4)n3n1)CCN(C[C@@H](C)O)CC2` [Example 523, N-Cyclopropyl-3-{2-[3-((R)-2-hydroxy-propyl)-8-methoxy-2,3,4,5-tetrahydro-1H-benzo[d]azepin-7-ylamino]-pyrrolo[2,1-f][1,2,4]triazin-7-yl}benzenesulfonamide], the IC50 on JAK2 is 100 to 1000 nM; at ALK it was below 100 nM.

For `COc1cc2c(cc1Nc1ncc3ccc(-c4cccc(S(=O)(=O)NC5CC5)c4)n3n1)CCN(CC(N)=O)CC2` [Example 524, 2-{7-[7-(3-Cyclopropylsulfamoyl-phenyl)-pyrrolo[2,1-f][1,2,4]triazin-2-ylamino]-8-methoxy-1,2,4,5-tetrahydro-benzo[d]azepin-3-yl}-acetamide], the figures for the IC50 on JAK2 and at ALK were 100 to 1000 nM and below 100 nM, respectively.

As to `COc1cc(N2CCC(N3CCN(C(=O)OCc4ccccc4)CC3)CC2)ccc1Nc1ncc2ccc(-c3ccccc3OC)n2n1` [Example 531, 4-(1-{3-Methoxy-4-[7-(2-methoxy-phenyl)-pyrrolo[2,1-f][1,2,4]triazin-2-ylamino]-phenyl}-piperidin-4-yl)-piperazine-1-carboxylic acid benzyl ester], the IC50 was 100 to 1000 nM at JAK2 and below 100 nM at ALK.

Regarding `COc1cc(N2CCC(N3CCN(C)CC3)CC2)ccc1Nc1ncc2ccc(-c3ccccc3S(=O)(=O)N(C)C)n2n1` [Example 532, 2-(2-{2-Methoxy-4-[4-(4-methyl-piperazin-1-yl)-piperidin-1-yl]-phenylamino}-pyrrolo[2,1-f][1,2,4]triazin-7-yl)-N,N-dimethyl-benzenesulfonamide], the IC50 at JAK2 was 1000 to 10000 nM; at ALK, below 100 nM.

As for `COc1cc(N2CCC(N3CCN(C)CC3)CC2)ccc1Nc1ncc2ccc(-c3ccc(Cl)nc3)n2n1` [Example 533, [7-(6-Chloro-pyridin-3-yl)-pyrrolo[2,1-f][1,2,4]triazin-2-yl]-{2-methoxy-4-[4-(4-methyl-piperazin-1-yl)-piperidin-1-yl]-phenyl}-amine], the IC50 on JAK2 and on ALK was below 100 nM in each case.

As to `COc1cc(N2CCC(N3CCN(C)CC3)CC2)ccc1Nc1ncc2ccc(-c3cccc(S(=O)(=O)NC(C)(C)C)c3)n2n1` [Example 534, N-tert-Butyl-3-(2-{2-methoxy-4-[4-(4-methyl-piperazin-1-yl)-piperidin-1-yl]-phenylamino}-pyrrolo[2,1-f][1,2,4]triazin-7-yl)-benzene sulfonamide], the IC50 on JAK2 and on ALK was below 100 nM each time.
